The text below walks through data of US8551939B2, “Peptide analogues, particularly for the treatment of chronic pain” (Instytut Medycyny Doswiadczalnej I Klinicznej, priority 2008, dated 2013).

Where a SMILES comes first, the peptide text is derived from it. [ ]: non-standard residue; d: D form.

Holding throughout (format): in vivo
Assay [1] deals with mice with inflammation due to tumour take. Kind of assay: Oncogenic pain model (murine melanoma cells into the hind leg), tail immersion in 55° C. water. The following applies: two weeks of melanoma tumour development, intraperitoneal, 30 mg/kg. On the procedure:
In an animal oncogenic pain model, in mice, inflammation was induced via the administration of about a million murine melanoma cells into the hind leg. After two days we observed increasing inflammation due to tumour take. After two weeks of tumour development we examined the effect of Tyrosyl-D-arginyl-phenylalanyl-phenylalanyl-lysyl-lysyl-prolyl-tyrosyl-isoleucyl-leucine against acute pain elicited by tail immersion in 55° C. water.

In another assay the test system is mice with inflammation. Description: Tail immersion (55° C.) acute pain test in mice with Freund's adjuvant induced paw inflammation. The conditions noted are these: one week after Freund's adjuvant into the paw, intravenous, 20 mg/kg. As for the experimental part: Inflammation was induced in mice by administering Freund's adjuvant into the paw. Inflammation was observed within two days. After a week, we examined the analgesic activity of the peptide analogue Tyrosyl-D-lysyl-phenylalanyl-phenylalanyl-arginyl-arginyl-prolyl-tyrosyl-isoleucyl-leucine against acute pain elicited by immersion of the tail into 55° C.

A further assay concerns rats. Description: Analgesic activity against thermal pain after administration into the subarachnoid space via cannulae. The following applies: subarachnoid cannula. The source says:
Two weeks prior to the experiment, rats were implanted with cannulae into the subarachnoid space. On the day of the experiment we examined analgesic activity by administering the peptide Tyrosyl-D-lysyl-phenylalanyl-phenylalanyl-lysyl-lysyl-prolyl-tyrosyl-isoleucyl-leucine.

For the compound `CC[C@H](C)[C@H](NC(=O)[C@H](Cc1ccc(O)cc1)NC(=O)[C@@H]1CCCN1C(=O)[C@H](CCCCN)NC(=O)[C@H](CCCCN)NC(=O)[C@H](Cc1ccccc1)NC(=O)[C@H](Cc1ccccc1)NC(=O)[C@@H](CCCNC(=N)N)NC(=O)[C@@H](N)Cc1ccc(O)cc1)C(=O)N[C@@H](CC(C)C)C(=O)O` [Tyrosyl-D-arginyl-phenylalanyl-phenylalanyl-lysyl-lysyl-prolyl-tyrosyl-isoleucyl-leucine] (H-Y[dR]FFKKPYIL-OH), the “effect against acute pain elicited by tail immersion in 55° C. water” value in assay [1] is on record as “complete analgesis”.
`CC[C@H](C)[C@H](NC(=O)[C@H](Cc1ccc(O)cc1)NC(=O)[C@@H]1CCCN1C(=O)[C@H](CCCNC(=N)N)NC(=O)[C@H](CCCNC(=N)N)NC(=O)[C@H](Cc1ccccc1)NC(=O)[C@H](Cc1ccccc1)NC(=O)[C@@H](CCCCN)NC(=O)[C@@H](N)Cc1ccc(O)cc1)C(=O)N[C@@H](CC(C)C)C(=O)O` [Tyrosyl-D-lysyl-phenylalanyl-phenylalanyl-arginyl-arginyl-prolyl-tyrosyl-isoleucyl-leucine] (H-Y[dK]FFRRPYIL-OH): in the assay with mice with inflammation, the “analgesic activity against acute pain elicited by immersion of the tail into 55° C.” value is recorded as “complete analgesis”.
For `CC[C@H](C)[C@H](NC(=O)[C@H](Cc1ccc(O)cc1)NC(=O)[C@@H]1CCCN1C(=O)[C@H](CCCCN)NC(=O)[C@H](CCCCN)NC(=O)[C@H](Cc1ccccc1)NC(=O)[C@H](Cc1ccccc1)NC(=O)[C@@H](CCCCN)NC(=O)[C@@H](N)Cc1ccc(O)cc1)C(=O)N[C@@H](CC(C)C)C(=O)O` [Tyrosyl-D-lysyl-phenylalanyl-phenylalanyl-lysyl-lysyl-prolyl-tyrosyl-isoleucyl-leucine] (H-Y[dK]FFKKPYIL-OH), the “change of analgesic effect on repeated administration (tolerance)” value with rats (daily dose of 5 mg) is “no changes in the extensive analgesic effect”. Besides, in the assay with rats (dose of 5 mg), the “analgesic activity against thermal pain” value is reported as “complete analgesis” and the “duration of complete analgesis against thermal pain” value is 1 h.
